Laboratory results taken from patent US20100063160A1, “POLYMORPHS OF O-DESMETHYL VENLAFAXINE SUCCINATE” (priority 2006, published 2010).

Experiments:
[1] = relative stability of ODV succinate polymorphic forms; type: physicochemical; settings: compared with the other forms of ODV succinate
[2] = cited from earlier work
[3] = cited from earlier work; remark: listed apart in the source
[4] = in vivo; cited from earlier work
[5] = in vivo, po; cited from earlier work
[6] = tested on: serotonin uptake; settings: cited from earlier work
[7] = tested on: norepinephrine uptake; settings: cited from earlier work

CN(C)CC(c1ccc(O)cc1)C1(O)CCCCC1.O=C(O)CCC(=O)O (centres unmarked) [Form II of ODV succinate, O-desmethyl venlafaxine (ODV) succinate monohydrate]
stability of polymorphic form [1]: most stable form

CN(C)CC(c1ccc(O)cc1)C1(O)CCCCC1.O=C(O)CCC(=O)O (centres unmarked) [ODV succinate, O-desmethyl venlafaxine (ODV) succinate]
permeability [2]: high
solubility [3]: high
absorption in the gastrointestinal tract [4]: well absorbed
bioavailability [4]: high
incidence of nausea, vomiting, diarrhea, abdominal pain, headache, vasovagal malaise and/or trismus [5]: lower incidence

CN(C)CC(c1ccc(O)cc1)C1(O)CCCCC1 (centres unmarked) [ODV, 1-[2-(dimethylamino)-1-(4-hydroxyphenyl)ethyl]cyclohexanol]
serotonin uptake inhibition [6]: inhibit
norepinephrine uptake inhibition [7]: inhibit
